Results on eleven compounds are retold here after ChEMBL document CHEMBL5038675, “Selective A3 Adenosine Receptor Antagonist Radioligand for Human and Rodent Species” (ACS Med Chem Lett, 2022).

In experiment [1] the target is T1, Adenosine receptor A1 (Homo sapiens) (UniProt P30542).
T1 sequence (whole entry): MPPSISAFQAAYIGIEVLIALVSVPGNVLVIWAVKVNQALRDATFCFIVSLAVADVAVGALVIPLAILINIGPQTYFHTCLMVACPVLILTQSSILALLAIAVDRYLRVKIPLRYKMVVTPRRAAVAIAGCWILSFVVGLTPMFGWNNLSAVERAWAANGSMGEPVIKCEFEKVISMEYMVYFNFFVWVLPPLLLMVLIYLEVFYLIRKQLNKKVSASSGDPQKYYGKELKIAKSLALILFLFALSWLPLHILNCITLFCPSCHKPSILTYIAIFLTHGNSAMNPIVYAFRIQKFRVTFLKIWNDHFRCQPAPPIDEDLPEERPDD
Description: Displacement of [3H] DPCPX from human adenosine A1 receptor expressed in HEK293 cells at 10 uM incubated for 60 mins by radioligand binding assay. The format is cell-based.

Experiment [2] has as its target T2, Adenosine receptor A3 (Homo sapiens, UniProt P0DMS8).
T2 sequence (P0DMS8 whole entry): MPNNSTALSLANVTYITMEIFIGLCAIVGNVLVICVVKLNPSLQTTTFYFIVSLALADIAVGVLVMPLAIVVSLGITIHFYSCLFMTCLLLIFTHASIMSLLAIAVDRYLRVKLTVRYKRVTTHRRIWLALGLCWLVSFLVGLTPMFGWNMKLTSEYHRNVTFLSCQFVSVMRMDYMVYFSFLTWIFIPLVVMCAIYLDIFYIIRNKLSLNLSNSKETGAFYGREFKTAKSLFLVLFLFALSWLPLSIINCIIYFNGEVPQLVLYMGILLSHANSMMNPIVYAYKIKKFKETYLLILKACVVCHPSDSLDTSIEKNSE
The format is cell-based, HEK293.

Experiment [3] deals with T3, Adenosine receptor A2a (Homo sapiens, UniProt P29274). Description: Displacement of [3H] ZM241385 from human adenosine A2A receptor expressed in HEK293 cells incubated for 60 mins by radioligand binding assay. Format: cell-based.
T3 sequence (P29274 whole entry): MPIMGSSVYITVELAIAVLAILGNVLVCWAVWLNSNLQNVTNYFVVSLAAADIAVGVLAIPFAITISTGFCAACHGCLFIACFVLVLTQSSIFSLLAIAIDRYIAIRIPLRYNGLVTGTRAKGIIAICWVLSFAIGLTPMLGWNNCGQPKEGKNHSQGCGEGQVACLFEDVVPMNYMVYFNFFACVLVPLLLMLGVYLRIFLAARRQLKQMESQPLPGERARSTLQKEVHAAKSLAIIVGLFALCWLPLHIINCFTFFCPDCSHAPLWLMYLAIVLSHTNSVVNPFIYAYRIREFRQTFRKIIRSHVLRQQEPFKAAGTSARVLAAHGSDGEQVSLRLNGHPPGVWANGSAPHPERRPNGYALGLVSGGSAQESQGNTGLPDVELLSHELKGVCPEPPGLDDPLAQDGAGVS
The target in experiment [4] is T4, Adenosine receptor A1 (Homo sapiens, UniProt P30542).
T4 sequence (P30542 whole entry): T1 sequence (whole entry)
In words: Displacement of [3H] DPCPX from human adenosine A1 receptor expressed in HEK293 cells incubated for 60 mins by radioligand binding assay. The format is cell-based.

The target in experiment [5] is T3, Adenosine receptor A2a. In words: Displacement of [3H] ZM241385 from human adenosine A2A receptor expressed in HEK293 cells at 10 uM incubated for 60 mins by radioligand binding assay. Format: cell-based.
Experiment [6] has as its target Adenosine receptor A2a (Mus musculus) (UniProt Q60613). Description: Displacement of [3H] ZM241385 from mouse adenosine A2A receptor expressed in HEK293 cells at 10 uM incubated for 60 mins by radioligand binding assay. The format is cell-based.
Experiment [7] concerns the target Translocator protein (Homo sapiens, UniProt P30536). In words: Binding affinity to human TSPO receptor by radioligand binding assay.
In experiment [8] the target is D(3) dopamine receptor (Homo sapiens, UniProt P35462). Description: Binding affinity to human D3 receptor by radioligand binding assay.
Chain of D(3) dopamine receptor (P35462 whole entry): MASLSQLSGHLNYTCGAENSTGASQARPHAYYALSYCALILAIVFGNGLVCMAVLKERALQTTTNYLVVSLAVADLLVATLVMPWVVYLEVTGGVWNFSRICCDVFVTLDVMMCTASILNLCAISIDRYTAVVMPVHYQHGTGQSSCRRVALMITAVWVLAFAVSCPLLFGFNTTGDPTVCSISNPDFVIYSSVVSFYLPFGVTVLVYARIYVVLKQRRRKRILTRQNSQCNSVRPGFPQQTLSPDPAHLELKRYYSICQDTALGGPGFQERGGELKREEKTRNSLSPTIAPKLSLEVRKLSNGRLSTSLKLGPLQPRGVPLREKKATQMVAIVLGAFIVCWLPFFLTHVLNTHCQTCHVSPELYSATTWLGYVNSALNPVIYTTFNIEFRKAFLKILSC
For experiment [9], the target named is T5, Adenosine receptor A1 (Mus musculus, UniProt Q60612).
T5 sequence (Q60612 whole entry): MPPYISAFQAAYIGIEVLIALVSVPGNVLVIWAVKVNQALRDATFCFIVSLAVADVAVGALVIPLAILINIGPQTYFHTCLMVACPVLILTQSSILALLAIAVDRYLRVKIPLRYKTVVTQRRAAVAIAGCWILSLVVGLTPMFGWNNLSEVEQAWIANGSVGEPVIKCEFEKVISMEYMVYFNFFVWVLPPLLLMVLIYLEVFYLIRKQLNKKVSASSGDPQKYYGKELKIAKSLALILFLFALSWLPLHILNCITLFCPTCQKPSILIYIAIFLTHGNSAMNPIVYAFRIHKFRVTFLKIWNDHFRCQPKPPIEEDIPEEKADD
Description: Displacement of [3H] DPCPX from mouse adenosine A1 receptor expressed in HEK293 cells incubated for 60 mins by radioligand binding assay. Format: cell-based.

The target in experiment [10] is T6, Adenosine receptor A3 (Mus musculus, UniProt Q61618).
T6 sequence (Q61618 whole entry): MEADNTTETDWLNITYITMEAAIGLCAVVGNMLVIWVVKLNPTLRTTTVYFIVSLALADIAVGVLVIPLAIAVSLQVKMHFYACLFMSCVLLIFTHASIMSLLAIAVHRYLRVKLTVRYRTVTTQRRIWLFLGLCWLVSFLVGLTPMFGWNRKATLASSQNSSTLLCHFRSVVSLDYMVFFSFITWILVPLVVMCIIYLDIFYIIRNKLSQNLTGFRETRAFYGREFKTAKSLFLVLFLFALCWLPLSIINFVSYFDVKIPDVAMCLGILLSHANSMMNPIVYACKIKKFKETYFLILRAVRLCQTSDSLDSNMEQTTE
The format is cell-based, HEK293.

Experiment [11] deals with D(4) dopamine receptor (Homo sapiens, UniProt P21917). In words: Binding affinity to human D4 receptor by radioligand binding assay.
Chain of D(4) dopamine receptor (P21917 whole entry): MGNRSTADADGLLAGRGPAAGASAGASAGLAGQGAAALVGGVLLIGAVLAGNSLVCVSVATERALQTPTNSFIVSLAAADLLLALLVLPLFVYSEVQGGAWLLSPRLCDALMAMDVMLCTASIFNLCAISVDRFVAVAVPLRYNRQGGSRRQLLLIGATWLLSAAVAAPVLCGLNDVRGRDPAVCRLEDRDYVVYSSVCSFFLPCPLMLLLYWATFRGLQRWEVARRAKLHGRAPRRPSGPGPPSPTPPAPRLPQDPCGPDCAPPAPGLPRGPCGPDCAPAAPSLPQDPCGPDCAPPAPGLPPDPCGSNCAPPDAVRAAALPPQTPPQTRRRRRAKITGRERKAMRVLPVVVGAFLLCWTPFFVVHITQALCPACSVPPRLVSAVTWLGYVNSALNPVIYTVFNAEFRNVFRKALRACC
Experiment [12] addresses Sigma intracellular receptor 2 (Homo sapiens, UniProt Q5BJF2). In words: Binding affinity to human sigma2 receptor by radioligand binding assay.
The target in experiment [13] is T6, Adenosine receptor A3. In words: Binding affinity to mouse adenosine A3 receptor measured by radioligand binding assay.
Experiment [14] has as its target T7, Adenosine receptor A3 (Rattus norvegicus, UniProt P28647).
T7 sequence (P28647 whole entry): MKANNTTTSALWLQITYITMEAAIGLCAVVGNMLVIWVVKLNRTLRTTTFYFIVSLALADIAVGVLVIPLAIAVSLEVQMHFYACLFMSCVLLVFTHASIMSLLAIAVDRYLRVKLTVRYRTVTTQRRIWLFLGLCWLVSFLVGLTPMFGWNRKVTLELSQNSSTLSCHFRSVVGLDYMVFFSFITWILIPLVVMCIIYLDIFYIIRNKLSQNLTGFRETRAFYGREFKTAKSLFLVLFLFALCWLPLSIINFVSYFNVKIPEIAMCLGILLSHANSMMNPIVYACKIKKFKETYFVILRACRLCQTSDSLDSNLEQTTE
In words: Binding affinity to rat adenosine A3 receptor measured by radioligand binding assay.

In experiment [15] the target is Adenosine receptor A2b (Homo sapiens) (UniProt P29275). In words: Displacement of [3H] DPCPX from human adenosine A2B receptor expressed in HEK293 cells at 10 uM incubated for 60 mins by radioligand binding assay. The format is cell-based.
Chain of Adenosine receptor A2b (Homo sapiens) (P29275 whole entry): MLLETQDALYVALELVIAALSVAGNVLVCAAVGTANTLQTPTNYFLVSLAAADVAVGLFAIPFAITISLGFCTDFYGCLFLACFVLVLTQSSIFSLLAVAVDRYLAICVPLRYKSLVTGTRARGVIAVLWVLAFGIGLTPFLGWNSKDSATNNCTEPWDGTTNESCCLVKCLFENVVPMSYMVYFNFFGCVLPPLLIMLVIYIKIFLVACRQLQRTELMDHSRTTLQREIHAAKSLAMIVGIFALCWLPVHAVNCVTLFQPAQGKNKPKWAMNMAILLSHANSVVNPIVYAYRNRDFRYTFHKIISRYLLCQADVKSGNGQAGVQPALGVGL
Experiment [16] addresses Adenosine receptor A2a (Rattus norvegicus) (UniProt P30543). In words: Displacement of [3H] ZM241385 from rat adenosine A2A receptor expressed in HEK293 cells at 10 uM incubated for 60 mins by radioligand binding assay. Format: cell-based.
The target in experiment [17] is T7, Adenosine receptor A3. Format: cell-based, HEK293.
Experiment [18] addresses Adenosine receptor A1 (Rattus norvegicus) (UniProt P25099). Description: Displacement of [3H] DPCPX from rat adenosine A1 receptor expressed in HEK293 cells at 10 uM incubated for 60 mins by radioligand binding assay. The format is cell-based.
Experiment [19] addresses Adenosine receptor A1 (Mus musculus) (UniProt Q60612). In words: Displacement of [3H] DPCPX from mouse adenosine A1 receptor expressed in HEK293 cells at 10 uM incubated for 60 mins by radioligand binding assay. The format is cell-based.
Experiment [20] concerns the target Adenosine receptor A2b (Rattus norvegicus) (UniProt P29276). In words: Displacement of [3H] DPCPX from rat adenosine A2B receptor expressed in HEK293 cells at 10 uM incubated for 60 mins by radioligand binding assay. Format: cell-based.
The target of experiment [21] is Adenosine receptor A2b (Mus musculus) (UniProt Q60614). In words: Displacement of [3H] DPCPX from mouse adenosine A2B receptor expressed in HEK293 cells at 10 uM incubated for 60 mins by radioligand binding assay. The format is cell-based.
Chain of Adenosine receptor A2b (Mus musculus) (Q60614 whole entry): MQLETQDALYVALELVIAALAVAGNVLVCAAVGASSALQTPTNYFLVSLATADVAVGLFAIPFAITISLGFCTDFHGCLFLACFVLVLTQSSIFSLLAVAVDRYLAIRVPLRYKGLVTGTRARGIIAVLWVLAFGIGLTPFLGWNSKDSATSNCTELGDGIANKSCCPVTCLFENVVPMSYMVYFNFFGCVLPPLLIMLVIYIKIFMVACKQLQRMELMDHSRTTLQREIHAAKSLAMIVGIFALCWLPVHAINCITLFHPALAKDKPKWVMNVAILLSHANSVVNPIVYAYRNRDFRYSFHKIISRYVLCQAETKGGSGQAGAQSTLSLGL
For experiment [22], the target named is T6, Adenosine receptor A3. In words: Binding affinity to mouse adenosine A3 receptor expressed in HEK293 cells measured by radioligand binding assay. Format: cell-based.
Experiment [23] deals with T7, Adenosine receptor A3. In words: Binding affinity to rat adenosine A3 receptor expressed in HEK293 cells measured by radioligand binding assay. Format: cell-based.

Chain of Adenosine receptor A2a (Mus musculus) (Q60613 whole entry): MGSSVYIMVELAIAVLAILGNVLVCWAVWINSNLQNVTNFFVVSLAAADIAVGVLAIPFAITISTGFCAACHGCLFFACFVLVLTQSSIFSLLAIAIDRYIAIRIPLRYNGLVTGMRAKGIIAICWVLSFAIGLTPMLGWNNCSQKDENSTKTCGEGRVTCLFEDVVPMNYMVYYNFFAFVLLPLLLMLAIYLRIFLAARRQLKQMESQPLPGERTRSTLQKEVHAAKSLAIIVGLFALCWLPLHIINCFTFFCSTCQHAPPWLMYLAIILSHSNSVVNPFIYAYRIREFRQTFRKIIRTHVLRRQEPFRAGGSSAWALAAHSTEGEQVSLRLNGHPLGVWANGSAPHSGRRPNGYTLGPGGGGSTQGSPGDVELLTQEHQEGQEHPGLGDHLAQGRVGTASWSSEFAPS
Chain of Adenosine receptor A2a (Rattus norvegicus) (P30543 whole entry): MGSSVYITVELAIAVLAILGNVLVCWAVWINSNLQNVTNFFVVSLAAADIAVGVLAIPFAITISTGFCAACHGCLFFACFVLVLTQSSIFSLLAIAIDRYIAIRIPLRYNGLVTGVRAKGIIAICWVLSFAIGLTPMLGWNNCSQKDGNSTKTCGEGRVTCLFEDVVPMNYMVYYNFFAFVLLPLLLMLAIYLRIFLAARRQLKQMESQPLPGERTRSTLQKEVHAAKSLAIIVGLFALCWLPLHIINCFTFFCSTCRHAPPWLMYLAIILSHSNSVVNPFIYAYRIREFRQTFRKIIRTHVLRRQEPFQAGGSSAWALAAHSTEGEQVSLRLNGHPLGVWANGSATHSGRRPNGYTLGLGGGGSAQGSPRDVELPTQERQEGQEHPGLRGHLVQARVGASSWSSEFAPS
Chain of Translocator protein (P30536 whole entry): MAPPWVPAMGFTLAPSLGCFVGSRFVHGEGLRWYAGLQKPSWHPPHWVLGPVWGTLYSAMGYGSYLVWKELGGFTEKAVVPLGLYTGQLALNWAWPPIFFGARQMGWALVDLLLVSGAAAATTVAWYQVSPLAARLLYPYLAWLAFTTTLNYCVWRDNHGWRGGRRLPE
Chain of Sigma intracellular receptor 2 (Q5BJF2 whole entry): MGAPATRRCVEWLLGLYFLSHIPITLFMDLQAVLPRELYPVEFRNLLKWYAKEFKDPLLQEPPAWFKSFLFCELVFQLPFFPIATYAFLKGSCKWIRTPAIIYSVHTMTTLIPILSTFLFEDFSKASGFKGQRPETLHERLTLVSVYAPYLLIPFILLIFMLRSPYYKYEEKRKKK
Chain of Adenosine receptor A2b (Rattus norvegicus) (P29276 whole entry): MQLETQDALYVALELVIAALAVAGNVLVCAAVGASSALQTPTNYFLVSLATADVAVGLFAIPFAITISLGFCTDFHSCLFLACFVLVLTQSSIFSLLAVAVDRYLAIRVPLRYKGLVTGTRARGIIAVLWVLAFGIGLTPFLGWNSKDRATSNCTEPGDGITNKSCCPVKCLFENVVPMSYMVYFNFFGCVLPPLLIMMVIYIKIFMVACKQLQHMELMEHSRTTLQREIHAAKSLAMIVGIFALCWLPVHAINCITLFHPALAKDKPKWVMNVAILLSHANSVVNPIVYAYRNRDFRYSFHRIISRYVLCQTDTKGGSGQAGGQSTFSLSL
Chain of Adenosine receptor A1 (Rattus norvegicus) (P25099 whole entry): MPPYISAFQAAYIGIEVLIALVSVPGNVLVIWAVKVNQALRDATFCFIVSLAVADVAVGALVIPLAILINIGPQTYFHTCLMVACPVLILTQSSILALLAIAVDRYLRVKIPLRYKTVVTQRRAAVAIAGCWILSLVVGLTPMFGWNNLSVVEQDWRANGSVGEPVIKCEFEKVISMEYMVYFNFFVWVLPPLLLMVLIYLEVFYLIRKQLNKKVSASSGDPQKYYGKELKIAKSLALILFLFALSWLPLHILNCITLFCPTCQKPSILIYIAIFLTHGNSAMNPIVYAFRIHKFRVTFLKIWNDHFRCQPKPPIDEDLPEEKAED

Consider `Cc1cc(C)cc(-c2nc(NC(=O)c3cncc(Br)c3)sc2-c2ccncc2)c1`, for which, in experiment [1], the inhibition is 38%. In addition, the Ki in [2] was 26.6 nM; in experiment [3] it was > 1000 nM.
Turning to `Cc1cc(F)cc(-c2nc(NC(=O)c3cccnc3)sc2-c2ccncc2)c1`, the inhibition constant Ki in experiment [4] was 78.7 nM; in experiment [2], 69.2 nM; in experiment [3], 3550 nM.
Consider `Cc1cc(C#Cc2ccc(Cl)s2)cc(-c2nc(NC(=O)c3cccnc3)sc2-c2ccncc2)c1`, for which the inhibition in [5] is -0.5%; in [1], 21%. This compound also had a Ki in experiment [2] of 80.7 nM.
On to `Cc1cc(I)cc(-c2nc(NC(=O)c3cccnc3)sc2-c2ccncc2)c1`, for which, in experiment [6], the inhibition is 7.4%. Moreover, the Ki in experiment [4] was found to be 8770 nM; in experiment [7], 1330 nM; in experiment [8], 340 nM; in [9], 2640 nM; in [10], 12.4 nM; in experiment [11], 1240 nM. Also, the inhibitory constant (Ki) is 3690 nM in experiment [12] and 6.12 nM in experiment [2].
Regarding `Cc1cc(Br)cc(-c2nc(NC(=O)c3cccnc3)sc2-c2ccncc2)c1`, the inhibition was 29% in [6] and -7.3% in experiment [5]. In addition, the inhibitory constant (Ki) in experiment [4] is 1450 nM; in experiment [9], 252 nM; in [10], 22.3 nM; in experiment [2] it was 6.34 nM.
Consider `CCCn1cc2c(nc(NC(=O)Nc3ccc(OC)cc3)n3nc(-c4ccco4)nc23)n1`, for which the Ki in experiment [13] and in experiment [14] was > 10000 nM in each case.
For the compound `COC(=O)/C=C/c1cc(C)cc(-c2nc(NC(=O)c3cccnc3)sc2-c2ccncc2)c1`, the inhibition in [5] is 15%. Also, the Ki in [4] amounted to 1570 nM; in experiment [10] it was 120 nM; in experiment [2], 18.9 nM.
For the compound `CC[C@@H]1CN2C(=O)N(C)c3nc(-c4ccccc4)[nH]c3C2=N1`, the Ki is 6360 nM in experiment [13] and > 10000 nM in experiment [14].
As to `CCCOC(=O)c1c(-c2ccccc2)nc(CC)c(C(=O)SCC)c1CCC`, the inhibition in [6] came to 25.1%; in experiment [15] it was 34.5%; in [5], 16.4%; in experiment [1] it was 35.4%; in experiment [16], 7.4%; in experiment [18], 25.5%. Also, the inhibition in experiment [19] came to 27.4%; in [20], 38.8%; in experiment [21] it was 20.2%. For the same compound, the Ki in experiment [10] came out at 349 nM; in experiment [2], 43.9 nM; in experiment [17], 216 nM.
`CNC(=O)[C@@]12C[C@@H]1[C@@H](n1cnc3c(NCc4cccc(I)c4)nc(Cl)nc31)[C@H](O)[C@@H]2O` came in with a Kd in experiment [14] of 0.17 nM.
Regarding `[3H]c1cncc(C(=O)Nc2nc(-c3cc(C)cc(C)c3)c(-c3ccncc3)s2)c1`, the Kd worked out at 3.74 nM in experiment [22] and 2.8 nM in [23].
